Experiments:
[1] = tested on: Lepeophtheirus salmonis; experiment: Duration of efficacy: medicated feed, then sea lice infestation of Atlantic salmon at 8 or 17 DPT (Example 2); type: in vivo; details: for percent efficacy for total sea lice, across counts: cohort infested at 8 DPT
Procedure: A randomized, blinded, parallel-group, negative-controlled study was conducted in which, the active ingredient was administered to Atlantic salmon at three dose rate (0 mg/kg/day, 0.025 mg/kg/day, and 0.060 mg/kg/day administered in medicated feed for 7 consecutive days. Following the treatment, the fish were intentionally infested with sea lice either 8 or 17 DPT, all within a controlled laboratory environment with seawater. The evaluation of efficacy for each cohort occurred at three specific timepoints post-infestation by comparing lice counts between the groups that received treatment and the untreated control groups.
Healthy Atlantic salmon post-smolts (n=1080) were selected for enrollment and distributed sequentially across eighteen (18) study tanks. Fish were weighed individually during the allocation of fish to tanks on study day (SD) −55&−56. Fish were weighed again on SD −19 to estimate the average weight of all fish and used to determine the feeding amount during the treatment period (SD 0−+6). The mean weight of fish prior to treatment was 716.1±152.5 g. Fish in the cohort infested 8 DPT were additionally weighed on SD +8, +14, +27, +35, +41 and +48. Fish in the cohort infested 17 DPT were additionally weighed on SD +8, +23, +36, +44, +50, and +57. For both cohorts SD 0 served as the first day of treatment.
Atlantic salmon post-smolts at each infestation time (8 or 17 DPT) were infested once with about 100 copepodids (Lepeophtheirus salmonis) per fish. During the study the water temperature varied between 9 and 13° C., and the water oxygen saturation was above 80%.
Three treatment groups were randomly assigned to eighteen study tanks by blocking the paired tank rows for the 8 and 17 DPT exposure. Study personnel were blinded as to the identity of the treatments for each tank.
Sea lice were counted three times during the study. […] The counts were strategically scheduled to ensure the presence of life stages, including chalimus, pre-adult, and adult stages, in at least one of the three counts within the negative control treatment. At all timepoints 10 fish were euthanized and lice counted.
Medicated feed was prepared by dry coating commercially available fish feed pellets with a premix containing the active ingredient to reach a content of about 4.2 and 10.0 mg/kg. The fish pellets were then coated with feed grade herring fish oil at an inclusion rate of about 0.75% w/w (7.5 g/kg feed) The consumption rate of the medicated feed was set to 0.6% body weight.
For the cohort infested at 8 DPT and the cohort infested at 17 DPT, treatment efficacy was computed for total number of sea lice/fish and total number of mobile life stages, i.e., preadult & adult sea lice/fish for each sea lice counting occasion (Count I, II & III). For the total number of attached/fish, treatment efficacy was computed at Count I only. Percent efficacy was computed using Abbott's formula for each treatment group compared to control as follows: percent efficacy=100*(MC−MT)/MC, where MC and MT are the arithmetic means of sea lice counts in the untreated control and S-roxapin-treated groups, respectively.
Treatments were considered efficacious when the percent efficacy was ≥90% for treated groups compared to untreated control groups. The mean sea lice abundance was reported for different parasite life stages (attached, mobile, and total (attached and mobile together)) and computed as the number of lice on salmon divided by the number of sampled fish per tank. The attached category included chalimus I & II stages. The mobile category included pre-adult and adult life stages of both males and females. The numbers of mobile, attached, and total lice were considered in this study.

[2] = tested on: sea lice; experiment: First set of experiments: medicated feed over 7 consecutive days to salmon, sea lice infestation; type: in vivo; details: all dose rates 0.050, 0.125, 0.250 mg/kg/d in medicated feed over 7 consecutive days to salmon
Procedure: The inventors conducted a first set of experiments with administration in medicated feed over 7 consecutive days to salmon of 0.050, 0.125, 0.250 mg/kg/d to determine a non-therapeutic dosage for control or treatment of sea lice infestation. As these lower dosages represented a large reduction in concentration to that described in U.S. Pat. No. 9,920,037 (1.0 mg/kg/d) and, as well, represented concentrations well below the dosage for related IOB products for dogs, cats and poultry approved between 2014 and 2021 by such regulatory authorities as the U.S. Food and Drug Administration, Health Canada, and the European Medicines Agency, it was reasonable to expect to find a non-therapeutic dosage at the lower dosages tested.

[3] = 0.025 mg/kg/day in feed 7 d, infested 8 DPT, Count I (21DPI)
[4] = 0.025 mg/kg/day in feed 7 d, infested 8 DPT, Count III (34 DPI)
[5] = 0.025 mg/kg/day in feed 7 d, infested 17 DPT, Count I (21DPI)
[6] = 0.025 mg/kg/day in feed 7 d, infested 17 DPT, Count III (34 DPI)
[7] = 0.060 mg/kg/day in feed 7 d, infested 8 DPT, Count I (21DPI)
[8] = 0.060 mg/kg/day in feed 7 d, infested 8 DPT, Count III (34 DPI)
[9] = 0.060 mg/kg/day in feed 7 d, infested 17 DPT, Count I (21DPI)
[10] = 0.060 mg/kg/day in feed 7 d, infested 17 DPT, Count III (34 DPI)

C#CCNC(=O)CNC(=O)c1sc(C2=NO[C@@](c3cc(Cl)c(Cl)c(Cl)c3)(C(F)(F)F)C2)cc1C [S-roxapin, (S)-3-methyl-N-(2-oxo-2-(prop-2-yn-1-ylamino)ethyl)-5-(5-(3,4,5-trichlorophenyl)-5-(trifluoromethyl)-4,5-dihydroisoxazol-3-yl)thiophene-2-carboxamide]
Number of Attached Lice/Fish % Efficacy [1, 3]: 92.5%
Number of Attached Lice/Fish Mean ± SD [1, 3]: 1.6 ± 2.0 lice/fish
Number of Mobile Lice/Fish % Efficacy [1, 3]: 87.2%
Number of Mobile Lice/Fish Mean ± SD [1, 3]: 1.0 ± 1.3 lice/fish
Total Number of Lice/Fish % Efficacy [1, 3]: 91.1%
Total Number of Lice/Fish Mean ± SD [1, 3]: 2.6 ± 2.9 lice/fish
Number of Attached Lice/Fish Mean ± SD [1, 4]: 0.0 ± 0.0 lice/fish
Number of Mobile Lice/Fish % Efficacy [1, 4]: 91.8%
Number of Mobile Lice/Fish Mean ± SD [1, 4]: 2.5 ± 2.8 lice/fish
Total Number of Lice/Fish % Efficacy [1, 4]: 91.8%
Total Number of Lice/Fish Mean ± SD [1, 4]: 2.5 ± 2.8 lice/fish
Number of Attached Lice/Fish % Efficacy [1, 5]: 21.2%
Number of Attached Lice/Fish Mean ± SD [1, 5]: 2.7 ± 1.9 lice/fish
Number of Mobile Lice/Fish % Efficacy [1, 5]: −10.1%
Number of Mobile Lice/Fish Mean ± SD [1, 5]: 24.4 ± 8.8 lice/fish
Total Number of Lice/Fish % Efficacy [1, 5]: −5.9%
Total Number of Lice/Fish Mean ± SD [1, 5]: 27.1 ± 9.0 lice/fish
Number of Attached Lice/Fish Mean ± SD [1, 6]: 0.0 ± 0.0 lice/fish
Number of Mobile Lice/Fish % Efficacy [1, 6]: −16.2%
Number of Mobile Lice/Fish Mean ± SD [1, 6]: 32.1 ± 12.1 lice/fish
Total Number of Lice/Fish % Efficacy [1, 6]: −16.0%
Total Number of Lice/Fish Mean ± SD [1, 6]: 32.1 ± 12.1 lice/fish
percent efficacy for total sea lice, across counts ([1]; 0.025 mg/kg/day): above 86.8%
efficacy for mobile lice ([1]; 0.025 mg/kg/day, cohort infested at 17 DPT): no efficacy
efficacy for total sea lice ([1]; 0.025 mg/kg/day, cohort infested at 17 DPT (printed: in DOE14)): No efficacy
Number of Attached Lice/Fish % Efficacy [1, 7]: 99.8%
Number of Attached Lice/Fish Mean ± SD [1, 7]: 0.0 ± 0.2 lice/fish
Number of Mobile Lice/Fish % Efficacy [1, 7]: 99.6%
Number of Mobile Lice/Fish Mean ± SD [1, 7]: 0.0 ± 0.2 lice/fish
Total Number of Lice/Fish % Efficacy [1, 7]: 99.8%
Total Number of Lice/Fish Mean ± SD [1, 7]: 0.1 ± 0.3 lice/fish
Number of Attached Lice/Fish Mean ± SD [1, 8]: 0.0 ± 0.0 lice/fish
Number of Mobile Lice/Fish % Efficacy [1, 8]: 100%
Number of Mobile Lice/Fish Mean ± SD [1, 8]: 0.0 ± 0.0 lice/fish
Total Number of Lice/Fish % Efficacy [1, 8]: 100%
Total Number of Lice/Fish Mean ± SD [1, 8]: 0.0 ± 0.0 lice/fish
Number of Attached Lice/Fish % Efficacy [1, 9]: 46.2%
Number of Attached Lice/Fish Mean ± SD [1, 9]: 1.9 ± 1.6 lice/fish
Number of Mobile Lice/Fish % Efficacy [1, 9]: 18.5%
Number of Mobile Lice/Fish Mean ± SD [1, 9]: 18.0 ± 6.1 lice/fish
Total Number of Lice/Fish % Efficacy [1, 9]: 22.3%
Total Number of Lice/Fish Mean ± SD [1, 9]: 19.9 ± 6.1 lice/fish
Number of Attached Lice/Fish Mean ± SD [1, 10]: 0.0 ± 0.0 lice/fish
Number of Mobile Lice/Fish % Efficacy [1, 10]: 23.0%
Number of Mobile Lice/Fish Mean ± SD [1, 10]: 21.3 ± 9.0 lice/fish
Total Number of Lice/Fish % Efficacy [1, 10]: 23.1%
Total Number of Lice/Fish Mean ± SD [1, 10]: 21.3 ± 9.0 lice/fish
percent efficacy for total sea lice, across counts ([1]; 0.060 mg/kg/day): above 99.2%
effectiveness in reducing sea lice burdens [2]: ~100%

Source: patent publication US12280040B2, “Compositions and methods of a dihydroisoxazole compound that reduces ectoparasite infestations on fish” (EVAH Atlantic Inc., priority 2023, dated 2025)
